The source of these data is paper PMC6199744, “Development of Chemical Proteomics for the Folateome and Analysis of the Kinetoplastid Folateome” (ACS Infectious Diseases, 2018).

What all share (type): binding
For experiment [1], the target named is T1, HeLa cell extract proteins (Homo sapiens, UniProt Q9Y316).
T1 construct: endogenous in cells; host or cells: HeLa cell extract
T1 sequence (Q9Y316 1-297): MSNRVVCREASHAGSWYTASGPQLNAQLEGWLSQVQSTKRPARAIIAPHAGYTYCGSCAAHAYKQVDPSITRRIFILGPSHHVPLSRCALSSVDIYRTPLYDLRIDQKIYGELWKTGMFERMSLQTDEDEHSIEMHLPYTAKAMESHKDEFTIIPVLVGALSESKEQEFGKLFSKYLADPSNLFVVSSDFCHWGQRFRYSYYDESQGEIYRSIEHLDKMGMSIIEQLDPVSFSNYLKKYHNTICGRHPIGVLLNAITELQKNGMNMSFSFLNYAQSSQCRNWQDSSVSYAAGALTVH
Conditions: HeLa; protein MEMO1.

Experiment [2] deals with T2, HeLa cell extract proteins (Homo sapiens, UniProt Q06323).
T2 construct: endogenous in cells; host or cells: HeLa cell extract
Conditions: HeLa; protein PSME1.

Experiment [3] concerns the target T3, HeLa cell extract proteins (Homo sapiens, UniProt P21266).
T3 construct: endogenous in cells; host or cells: HeLa cell extract
T3 sequence (P21266 1-225): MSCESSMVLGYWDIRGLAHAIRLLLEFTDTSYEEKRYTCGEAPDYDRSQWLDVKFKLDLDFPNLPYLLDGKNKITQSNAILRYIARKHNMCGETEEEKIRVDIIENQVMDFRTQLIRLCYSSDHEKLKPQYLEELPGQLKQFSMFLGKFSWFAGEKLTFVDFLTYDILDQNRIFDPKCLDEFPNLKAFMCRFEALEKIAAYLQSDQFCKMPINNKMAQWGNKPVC
Conditions: protein GSTM3; HeLa.

Experiment [4] deals with T4, HeLa cell extract proteins (Homo sapiens, UniProt Q13501).
T4 construct: endogenous in cells; host or cells: HeLa cell extract
Conditions: HeLa; protein SQSTM1.

For experiment [5], the target named is T5, HeLa cell extract proteins (Homo sapiens, UniProt Q9UIA9).
T5 construct: endogenous in cells; host or cells: HeLa cell extract
T5 sequence (Q9UIA9 1-1087): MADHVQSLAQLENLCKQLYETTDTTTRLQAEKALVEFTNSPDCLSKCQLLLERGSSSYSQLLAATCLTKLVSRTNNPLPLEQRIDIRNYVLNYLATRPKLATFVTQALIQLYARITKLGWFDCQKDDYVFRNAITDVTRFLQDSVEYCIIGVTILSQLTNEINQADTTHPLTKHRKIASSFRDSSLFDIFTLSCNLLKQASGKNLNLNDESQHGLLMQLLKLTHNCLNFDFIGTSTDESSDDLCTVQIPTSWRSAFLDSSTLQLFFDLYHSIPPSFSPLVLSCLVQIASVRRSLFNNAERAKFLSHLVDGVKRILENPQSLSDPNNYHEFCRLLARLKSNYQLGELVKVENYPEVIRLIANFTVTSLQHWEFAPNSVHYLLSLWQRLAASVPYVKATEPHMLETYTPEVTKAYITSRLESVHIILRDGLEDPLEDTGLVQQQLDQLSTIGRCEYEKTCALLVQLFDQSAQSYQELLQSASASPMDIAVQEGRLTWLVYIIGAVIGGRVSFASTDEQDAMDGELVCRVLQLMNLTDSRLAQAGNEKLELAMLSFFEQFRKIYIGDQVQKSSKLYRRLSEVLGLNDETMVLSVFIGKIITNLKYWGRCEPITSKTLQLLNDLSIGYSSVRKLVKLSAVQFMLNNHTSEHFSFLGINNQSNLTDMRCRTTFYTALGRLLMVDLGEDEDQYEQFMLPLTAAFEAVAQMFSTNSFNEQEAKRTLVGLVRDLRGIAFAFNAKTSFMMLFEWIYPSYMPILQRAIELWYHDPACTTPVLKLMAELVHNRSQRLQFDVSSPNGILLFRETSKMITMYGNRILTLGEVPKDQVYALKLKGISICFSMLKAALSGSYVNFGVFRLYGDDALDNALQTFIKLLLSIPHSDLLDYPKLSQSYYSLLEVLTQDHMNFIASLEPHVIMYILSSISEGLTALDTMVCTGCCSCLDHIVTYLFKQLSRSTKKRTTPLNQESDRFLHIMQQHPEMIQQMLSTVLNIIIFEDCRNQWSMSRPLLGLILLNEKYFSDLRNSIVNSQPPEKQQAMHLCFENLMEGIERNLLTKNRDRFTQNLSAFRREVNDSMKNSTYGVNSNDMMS
As to conditions: HeLa; protein XPO7.

The target of experiment [6] is T6, HeLa cell extract proteins (Homo sapiens, UniProt P13804).
T6 construct: endogenous in cells; host or cells: HeLa cell extract
T6 sequence (P13804 20-333): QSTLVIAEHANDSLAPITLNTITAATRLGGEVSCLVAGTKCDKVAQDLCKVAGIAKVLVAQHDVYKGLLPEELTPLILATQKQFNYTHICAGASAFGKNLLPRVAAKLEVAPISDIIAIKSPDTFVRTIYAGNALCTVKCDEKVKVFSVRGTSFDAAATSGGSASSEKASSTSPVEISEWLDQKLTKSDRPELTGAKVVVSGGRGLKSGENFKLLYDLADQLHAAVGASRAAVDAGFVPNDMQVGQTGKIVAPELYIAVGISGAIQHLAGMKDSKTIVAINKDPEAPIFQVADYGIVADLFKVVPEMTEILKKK

For experiment [7], the target named is T7, HeLa cell extract proteins (Homo sapiens, UniProt P30046).
T7 construct: endogenous in cells; host or cells: HeLa cell extract

For experiment [8], the target named is T8, HeLa cell extract proteins (Homo sapiens, UniProt P31939).
T8 construct: endogenous in cells; host or cells: HeLa cell extract

Experiment [9] has as its target T9, HeLa cell extract proteins (Homo sapiens, UniProt O15160).
T9 construct: endogenous in cells; host or cells: HeLa cell extract

Like-named read-outs stand apart in the source and are kept apart here.

T4 sequence (Q13501 whole entry): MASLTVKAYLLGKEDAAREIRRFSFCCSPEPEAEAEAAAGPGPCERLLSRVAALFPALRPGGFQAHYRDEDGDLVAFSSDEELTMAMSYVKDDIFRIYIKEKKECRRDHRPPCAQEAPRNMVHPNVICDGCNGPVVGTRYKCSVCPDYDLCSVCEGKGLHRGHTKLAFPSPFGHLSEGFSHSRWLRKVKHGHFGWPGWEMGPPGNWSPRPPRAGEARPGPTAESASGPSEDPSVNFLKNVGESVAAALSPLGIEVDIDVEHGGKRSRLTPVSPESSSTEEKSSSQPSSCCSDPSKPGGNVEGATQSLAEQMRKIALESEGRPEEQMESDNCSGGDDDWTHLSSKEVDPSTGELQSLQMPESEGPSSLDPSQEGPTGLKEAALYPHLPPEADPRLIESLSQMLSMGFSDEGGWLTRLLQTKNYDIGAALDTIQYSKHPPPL
T9 sequence (O15160 whole entry): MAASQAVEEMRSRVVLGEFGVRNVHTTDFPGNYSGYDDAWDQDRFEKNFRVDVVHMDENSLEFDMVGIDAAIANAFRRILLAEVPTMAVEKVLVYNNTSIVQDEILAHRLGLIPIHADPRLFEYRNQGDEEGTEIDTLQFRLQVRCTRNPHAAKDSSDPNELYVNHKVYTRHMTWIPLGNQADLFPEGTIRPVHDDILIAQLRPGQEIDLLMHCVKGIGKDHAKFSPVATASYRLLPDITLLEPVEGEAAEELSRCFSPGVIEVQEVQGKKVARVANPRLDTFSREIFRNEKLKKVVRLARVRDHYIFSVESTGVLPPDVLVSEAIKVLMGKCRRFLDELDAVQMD
T2 sequence (Q06323 whole entry): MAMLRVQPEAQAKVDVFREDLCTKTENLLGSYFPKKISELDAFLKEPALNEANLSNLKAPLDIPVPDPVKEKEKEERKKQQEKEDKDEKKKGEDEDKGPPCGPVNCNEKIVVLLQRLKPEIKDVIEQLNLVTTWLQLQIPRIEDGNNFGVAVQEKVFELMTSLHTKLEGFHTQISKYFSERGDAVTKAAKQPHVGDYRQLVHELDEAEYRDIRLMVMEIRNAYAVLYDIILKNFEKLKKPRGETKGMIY
T7 sequence (P30046 whole entry): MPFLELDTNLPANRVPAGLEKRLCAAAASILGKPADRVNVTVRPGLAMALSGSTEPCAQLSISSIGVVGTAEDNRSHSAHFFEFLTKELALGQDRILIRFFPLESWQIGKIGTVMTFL
T8 sequence (P31939 whole entry): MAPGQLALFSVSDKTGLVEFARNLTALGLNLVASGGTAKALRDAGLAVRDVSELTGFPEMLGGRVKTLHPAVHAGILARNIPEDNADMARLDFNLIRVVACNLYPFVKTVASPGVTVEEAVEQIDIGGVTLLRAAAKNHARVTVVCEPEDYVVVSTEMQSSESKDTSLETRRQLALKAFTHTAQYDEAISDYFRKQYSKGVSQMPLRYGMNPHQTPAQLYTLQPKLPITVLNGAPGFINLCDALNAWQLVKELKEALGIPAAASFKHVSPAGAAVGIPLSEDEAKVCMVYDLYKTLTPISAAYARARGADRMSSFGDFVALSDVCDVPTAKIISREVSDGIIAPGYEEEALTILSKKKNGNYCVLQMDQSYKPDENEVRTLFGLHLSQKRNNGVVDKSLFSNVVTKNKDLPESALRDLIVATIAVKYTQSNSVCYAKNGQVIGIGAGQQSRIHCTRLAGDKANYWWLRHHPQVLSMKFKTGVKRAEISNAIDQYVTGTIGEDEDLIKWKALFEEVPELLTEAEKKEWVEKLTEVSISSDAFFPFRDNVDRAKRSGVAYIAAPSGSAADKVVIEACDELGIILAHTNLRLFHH

Turning to `CCCCCCOc1cccc(Cc2cnc(N)nc2N)c1` [compound 2], the “fold changes relative to vehicle control” value in experiment [1] worked out at 0.87; in experiment [2] it was 1.35; in [3], 1.72; in [4], 0.96; in [5] it was 1.28.

With `NCCOCCOCC(=O)Nc1nc2ncc(CNc3ccc(C(=O)NC(CCC(=O)O)C(=O)O)cc3)nc2c(=O)[nH]1` (stereo not shown) [compound 6], the “fold changes relative to vehicle control” value amounted to 0.9 in experiment [6] (protein ETFA, HeLa); 1.79 in [7] (HeLa, captured protein DDT); 1.13 in experiment [8] (HeLa, protein ATIC); 0.97 in experiment [9] (protein POLR1C, HeLa).

For the compound `CCCCCCOc1ccc(Cc2cnc(N)nc2N)cc1` [compound 1], the “fold changes relative to vehicle control” value is 0.97 in experiment [1]; 0.97 in experiment [2]; 1.22 in [3]; 1.3 in experiment [4]; 0.88 in experiment [5].

As to `Nc1nc2c(c(=O)[nH]1)N(C=O)C(CNc1ccc(C(=O)N[C@@H](CCC(=O)O)C(=O)O)cc1)CN2` (stereo partly shown) [LEU, leucovorin], the “fold changes relative to vehicle control” value is 0.77 in experiment [6] (protein ETFA, HeLa); 1.06 in experiment [7] (HeLa, captured protein DDT); 1.06 in experiment [8] (HeLa, protein ATIC); 0.87 in [9] (protein POLR1C, HeLa).

Take `NCCCNc1ccc(C(=O)NC(CCC(=O)O)C(=O)O)cc1` (stereo not shown) [compound 7]: the “fold changes relative to vehicle control” value in [6] (protein ETFA, HeLa) worked out at 0.87; in experiment [7] (HeLa, captured protein DDT), 1.25; in experiment [8] (HeLa, protein ATIC), 0.99; in experiment [9] (protein POLR1C, HeLa) it was 0.95.

For the compound `Nc1nc2[nH]cc(CCc3ccc(C(=O)N[C@@H](CCC(=O)O)C(=O)O)cc3)c2c(=O)[nH]1` [PTX, pemetrexed], the “fold changes relative to vehicle control” value in [6] was 0.73; in [7] it was 1.49; in experiment [8] it was 0.91; in experiment [9], 0.9.

As to `Nc1nc2cccc(-c3ccccc3)c2n1Cc1ccc(Cl)c(Cl)c1` [compound 3], the “fold changes relative to vehicle control” value in [1] is listed as 1; in experiment [2], 1.04; in experiment [3] it was 0.93; in experiment [4] it was 1.2; in [5], 0.98.
